Reference: PubChem BioAssay (NCI)
Values joined by “and” are separate entries in the source; they are usually repeats but may differ in a detail not shown here. Identical values can stand only once.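 Growth conditions: 96-well plates. Treatment: test compound, 48 hours, 5 concentrations. Analysis: linear interpolation between bracketing concentrations; unreached endpoints set to highest concentration. Abbreviation: GI50, concentration required for 50% inhibition of growth. The concentration for full growth arrest is given as TGI.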

What was measured:
Test in all cases: DTP human tumour cell line panel, 48 h
[1] = test system: OVCAR-8 ovarian
[2] = test system: SNB-75 CNS
[3] = test system: 786-0 renal
[4] = test system: DU-145 prostate
[5] = test system: RPMI-8226 leukemia
[6] = test system: KM12 colon
[7] = test system: HCC-2998 colon
[8] = test system: A549 NSCLC
[9] = test system: HT29 colon
[10] = test system: MCF7 breast

Clc1ccc(-c2c(C3=NCCCN3)nnn2-c2ccc(Cl)cc2)cc1
TGI [1]: > 88.2 µM
TGI [2]: > 72.2 µM
TGI [3]: > 77.1 µM
TGI [4]: > 100 µM
TGI [5]: 62.4 µM
TGI [6]: > 77.5 µM
TGI [7]: 38.3 µM
TGI [8]: > 100 µM
TGI [9]: 64.4 µM
TGI [10]: > 55.8 µM

COC(=O)C12C3C4C1C1C2C3C41NC(=O)c1csc([C@@H](C[C@H](C(C)C)N(C)C(=O)[C@@H](NC(=O)[C@H]2CCCCN2C)C2CC2)OC(C)=O)n1 (stereo not given in full)
GI50 [1]: 0.0404 µM
TGI [1]: > 33.3 µM
GI50 [2]: 0.00595 µM
TGI [2]: > 33.3 µM
GI50 [3]: 0.088 µM
TGI [3]: > 33.3 µM
GI50 [4]: 0.00671 µM
TGI [4]: > 33.3 µM
GI50 [5]: 0.00696 µM
TGI [5]: > 33.3 µM
GI50 [6]: 0.00818 µM
TGI [6]: > 33.3 µM
GI50 [7]: 0.146 µM
TGI [7]: > 33.3 µM
GI50 [8]: 0.157 µM
TGI [8]: > 33.3 µM
GI50 [9]: 0.00658 µM
TGI [9]: > 33.3 µM
GI50 [10]: 0.00606 µM
TGI [10]: > 33.3 µM

Cc1ccc(NC(=O)c2sc3nc(C)c(C(O)c4ccccc4)cc3c2N)cc1 (stereo not given)
GI50 [1]: 0.611 µM
TGI [1]: > 100 µM
GI50 [2]: 0.245 µM
TGI [2]: 13.6 µM
GI50 [3]: 1.02 µM
TGI [3]: 18.8 µM
GI50 [4]: 0.391 µM
TGI [4]: 16.8 µM
GI50 [5]: 0.421 µM
TGI [5]: 43.3 µM
GI50 [6]: 0.452 µM
TGI [6]: > 61.9 µM
GI50 [7]: 0.818 µM
TGI [7]: 5.73 µM
GI50 [8]: 0.64 µM
TGI [8]: 32.7 µM
GI50 [9]: 0.358 µM
TGI [9]: 14.8 µM
GI50 [10]: 0.368 µM
TGI [10]: > 57.6 µM

Cc1ccc2c(c1)CN(C(=O)CCC(=O)OCc1ccccc1)c1ccc(C)cc1CN2C(=O)CCC(=O)OCc1ccccc1
TGI [1]: > 100 µM
TGI [2]: 62.6 µM
TGI [3]: > 100 µM
TGI [4]: > 100 µM
TGI [5]: > 100 µM
TGI [6]: > 100 µM
TGI [7]: > 100 µM
TGI [8]: > 100 µM
TGI [9]: > 100 µM
TGI [10]: > 100 µM

CC(C)(C)c1cc(NC(=O)Cc2ccc(-c3cnc4cc(-c5cnn(CCN6CCOCC6)c5)ccc4n3)cc2)no1
GI50 [1]: 0.481 µM and 0.507 µM and 0.121 µM
TGI [1]: 50 µM and > 100 µM and > 3 µM
TGI [2]: 4.39 µM and 38.4 µM and > 3 µM
GI50 [3]: 0.297 µM and 0.764 µM and 0.092 µM
TGI [3]: 50 µM and > 100 µM and > 3 µM
GI50 [4]: 0.432 µM and 0.494 µM and 0.0757 µM
TGI [4]: 50 µM and > 100 µM and > 3 µM
GI50 [5]: 0.249 µM and 0.609 µM and 0.0985 µM
TGI [5]: 50 µM and > 100 µM and > 3 µM
TGI [6]: 50 µM and > 100 µM and > 3 µM
TGI [7]: 50 µM and > 100 µM and > 3 µM
GI50 [8]: 0.335 µM and 0.506 µM and 0.108 µM
TGI [8]: 50 µM and > 100 µM and > 3 µM
GI50 [9]: 0.613 µM and 1.06 µM and 0.116 µM
TGI [9]: 50 µM and > 100 µM and > 3 µM
GI50 [10]: 0.301 µM and 0.806 µM and 0.194 µM
TGI [10]: 50 µM and > 100 µM and > 3 µM

c1cc2c(ncc3cscc32)s1
TGI [1]: > 100 µM
TGI [2]: > 100 µM
TGI [3]: > 100 µM
TGI [4]: > 100 µM
TGI [5]: > 100 µM
TGI [6]: > 100 µM
TGI [7]: > 100 µM
TGI [8]: > 100 µM
TGI [9]: > 100 µM
TGI [10]: > 100 µM

CC[CH2][Sn]([Cl])([Cl])[CH2]CC.Oc1ccccc1C=NCCN=Cc1ccccc1O
GI50 [1]: 12.3 µM
TGI [1]: 27.7 µM
GI50 [2]: 3.34 µM
TGI [2]: 16.1 µM
GI50 [3]: 7.91 µM
TGI [3]: 20.7 µM
GI50 [4]: 12.1 µM
TGI [4]: 24.6 µM
GI50 [5]: 3.35 µM
TGI [5]: 8.33 µM
GI50 [6]: 12.7 µM
TGI [6]: 25.9 µM
GI50 [7]: 11.1 µM
TGI [7]: 23.8 µM
GI50 [8]: 19.2 µM
TGI [8]: 41 µM
GI50 [10]: 3.12 µM
TGI [10]: 15.8 µM

Cc1ccc2c3c(c(=O)[nH]c2c1)C1(C(C#N)=C(N)O3)c2cc(Br)ccc2-c2ccc(Br)cc21
GI50 [1]: 3.02 µM
TGI [1]: 8.62 µM
GI50 [2]: 1.51 µM
TGI [2]: 3.16 µM
GI50 [3]: 2.46 µM
TGI [3]: 6.01 µM
GI50 [4]: 2.98 µM
TGI [4]: 12.1 µM
GI50 [5]: 4.5 µM
TGI [5]: 23.7 µM
GI50 [6]: 1.67 µM
TGI [6]: 4.76 µM
GI50 [7]: 2.15 µM
TGI [7]: 4.74 µM
GI50 [8]: 2.01 µM
TGI [8]: 4.52 µM
GI50 [9]: 2.25 µM
TGI [9]: 6.06 µM
GI50 [10]: 2.1 µM
TGI [10]: 5.76 µM
